# Read-outs that look alike come from different tables or passages of the source.
# Assays:
# [1] = Plasma stability assay, rat plasma; type: in vitro ADME; details: 10 μM, 37° C.
# Procedure: Plasma stability determination of the test compounds in rat, dog, cynomolgus monkey and human plasma is performed using HPLC-MS. For rat, incubations are carried out in 96-well polypropylene plates in 5 aliquots of 70 μL each (one for each time point). […] Five time points are analyzed (0, 15, 120, 480 and 1440 min). For dog, monkey and human, test compounds (2 μM, final solvent concentration 1%) were also incubated at 37° C. and analyzed at five time points (0, 10, 30, 60 and 120 min). All incubations are performed in duplicates. The samples are analyzed by HPLC-MS. The percentage of parent compound remaining after incubation in plasma is determined.
# [2] = Polymorph screening of solid state drug substances; details: for Dry method and appearance: after stirring 50 °C 72 hours, dried solid; for XRPD results (Dried): dried solid after 50 °C 72 hours; for Visual observation 50° C. / Visual observation RT: target conc. 100 mg/ml
# [3] = heating temp. 40 °C, obs. temp. 40 °C
# [4] = heating temp. 60 °C, obs. temp. 25 °C
# [5] = heating temp. 60 °C, obs. temp. 40 °C
compound,measurement,setting,value
"C=C1CC[C@@]2(O)C3Cc4ccc(OC(=O)OCCCCCCCCCCCCCCCC)c5c4[C@@]2(CCN3CC2CC2)[C@H]1O5 [Compound 19, (4aS,7aS,12bS)-3-(cyclopropylmethyl)-4a-hydroxy-7-methylene-2,3,4,4a,5,6,7,7a-octahydro-1H-4,12-methanobenzofuro[3,2-e]isoquinolin-9-yl hexadecyl carbonate]",Approximate Solubility (mg/mL) in Excipient: Cottonseed oil,[3],67 to 80 mg/mL
same,Approximate Solubility (mg/mL) in Excipient: Ethanol,[3],27 to 42 mg/mL
same,Approximate Solubility (mg/mL) in Excipient: Sesame oil,[3],103 to 137 mg/mL
same,% remaining at time point,[1]; 0 min,100%
same,% remaining at time point,[1]; 15 min,70.1%
same,% remaining at time point,[1]; 120 min,71.5%
same,% remaining at time point,[1]; 480 min,43.8%
same,% remaining at time point,[1]; 1440 min,33.3%
same,Dry method and appearance,[2]; Acetone,Evaporation/white powder
same,XRPD results (Dried),[2]; Acetone,Pattern A
same,Visual observation 50° C.,[2]; Acetone,Clear
same,Visual observation RT,[2]; Acetone,Slurry
same,Dry method and appearance,[2]; EtOAc,Evaporation/white powder
same,XRPD results (Dried),[2]; EtOAc,Pattern A
same,Visual observation 50° C.,[2]; EtOAc,Clear
same,Visual observation RT,[2]; EtOAc,Slurry
same,Dry method and appearance,[2]; Heptane,Evaporation/white powder
same,XRPD results (Dried),[2]; Heptane,Pattern A
same,Visual observation 50° C.,[2]; Heptane,Clear
same,Visual observation RT,[2]; Heptane,Slurry
same,Dry method and appearance,[2]; Isopropanol,Evaporation/white powder
same,XRPD results (Dried),[2]; Isopropanol,Pattern A
same,Visual observation 50° C.,[2]; Isopropanol,Clear
same,Visual observation RT,[2]; Isopropanol,Slurry
same,Dry method and appearance,[2]; MTBE,Evaporation/white powder
same,XRPD results (Dried),[2]; MTBE,Pattern A
same,Visual observation 50° C.,[2]; MTBE,Clear
same,Visual observation RT,[2]; MTBE,Clear
"CCCCCCCCCCCCCCCC(=O)Oc1ccc2c3c1O[C@H]1C(=O)CC[C@@]4(O)C(C2)N(CC2CC2)CC[C@]314 [Compound 55, (4aS,7aR,12bS)-3-(cyclopropylmethyl)-4a-hydroxy-7-oxo-2,3,4,4a,5,6,7,7a-octahydro-1H-4,12-methanobenzofuro[3,2-e]isoquinolin-9-yl palmitate]",Approximate Solubility (mg/mL) in Excipient: Cottonseed oil,[4],<50 mg/mL
same,Approximate Solubility (mg/mL) in Excipient: Cottonseed oil,[5],>400.1 mg/mL
same,Approximate Solubility (mg/mL) in Excipient: Ethanol,[5],>401.1 mg/mL
same,Approximate Solubility (mg/mL) in Excipient: Sesame oil,[4],<50 mg/mL
same,Approximate Solubility (mg/mL) in Excipient: Sesame oil,[5],>394.8 mg/mL
same,Equilibrium solubility (mg/mL) Water,"compound after slurry in EtOAc, temperatures N/A",<0.0005 mg/mL
same,% remaining at time point,[1]; 0 min,100%
same,% remaining at time point,[1]; 15 min,77.3%
same,% remaining at time point,[1]; 120 min,47.2%
same,% remaining at time point,[1]; 480 min,27.1%
same,% remaining at time point,[1]; 1440 min,15.6%
same,Dry method and appearance,[2]; Acetone,Evaporation/white powder
same,XRPD results (Dried),[2]; Acetone,Pattern B
same,Visual observation 50° C.,[2]; Acetone,Clear
same,Visual observation RT,[2]; Acetone,Slurry
same,Dry method and appearance,[2]; EtOAc,Evaporation/white powder
same,XRPD results (Dried),[2]; EtOAc,Pattern B
same,Visual observation 50° C.,[2]; EtOAc,Clear
same,Visual observation RT,[2]; EtOAc,Slurry
same,Dry method and appearance,[2]; Heptane,Evaporation/white powder
same,XRPD results (Dried),[2]; Heptane,Pattern B
same,Visual observation 50° C.,[2]; Heptane,Clear
same,Visual observation RT,[2]; Heptane,Slurry
same,Dry method and appearance,[2]; Isopropanol,Evaporation/white powder
same,XRPD results (Dried),[2]; Isopropanol,Pattern B
same,Visual observation 50° C.,[2]; Isopropanol,Clear
same,Visual observation RT,[2]; Isopropanol,Slurry
same,Dry method and appearance,[2]; MTBE,Evaporation/white powder
same,XRPD results (Dried),[2]; MTBE,Pattern B
same,Visual observation 50° C.,[2]; MTBE,Clear
same,Visual observation RT,[2]; MTBE,Clear
"CCCCCCCCCCCCCCCCCCCCCC(=O)Oc1ccc2c3c1O[C@H]1C(=O)CC[C@@]4(O)C(C2)N(CC2CC2)CC[C@]314 [Compound 51, (4aS,7aR,12bS)-3-(cyclopropylmethyl)-4a-hydroxy-7-oxo-2,3,4,4a,5,6,7,7a-octahydro-1H-4,12-methanobenzofuro[3,2-e]isoquinolin-9-yl docosanoate]",Approximate Solubility (mg/mL) in Excipient: Cottonseed oil,[4],<50 mg/mL
same,Approximate Solubility (mg/mL) in Excipient: Sesame oil,[4],<46 mg/mL
same,Equilibrium solubility (mg/mL) Water,[3],<0.001 mg/mL
same,% remaining at time point,[1]; 0 min,100%
same,% remaining at time point,[1]; 15 min,107.4%
same,% remaining at time point,[1]; 120 min,105.3%
same,% remaining at time point,[1]; 480 min,88.2%
same,% remaining at time point,[1]; 1440 min,92.7%
"CCCCCCCCCCCCCCCCCC(=O)Oc1ccc2c3c1O[C@H]1C(=O)CC[C@@]4(O)C(C2)N(CC2CC2)CC[C@]314 [Compound 54, (4aS,7aR,12bS)-3-(cyclopropylmethyl)-4a-hydroxy-7-oxo-2,3,4,4a,5,6,7,7a-octahydro-1H-4,12-methanobenzofuro[3,2-e]isoquinolin-9-yl stearate]",Approximate Solubility (mg/mL) in Excipient: Cottonseed oil,[4],<51 mg/mL
same,Approximate Solubility (mg/mL) in Excipient: Sesame oil,[4],<50 mg/mL
same,Equilibrium solubility (mg/mL) Water,[3],<0.001 mg/mL
same,% remaining at time point,[1]; 0 min,100%
same,% remaining at time point,[1]; 15 min,98.8%
same,% remaining at time point,[1]; 120 min,62.4%
same,% remaining at time point,[1]; 480 min,45.6%
same,% remaining at time point,[1]; 1440 min,19.4%
"CCCCCCCCCCCCCC(=O)Oc1ccc2c3c1O[C@H]1C(=O)CC[C@@]4(O)C(C2)N(CC2CC2)CC[C@]314 [Compound 57, (4aS,7aR,12bS)-3-(cyclopropylmethyl)-4a-hydroxy-7-oxo-2,3,4,4a,5,6,7,7a-octahydro-1H-4,12-methanobenzofuro[3,2-e]isoquinolin-9-yl tetradecanoate]",Approximate Solubility (mg/mL) in Excipient: Cottonseed oil,[4],>423.7 mg/mL
same,Approximate Solubility (mg/mL) in Excipient: Sesame oil,[4],>417.3 mg/mL
same,Equilibrium solubility (mg/mL) Water,[3],<0.001 mg/mL
same,% remaining at time point,[1]; 0 min,100%
same,% remaining at time point,[1]; 15 min,10.5%
same,% remaining at time point,[1]; 120 min,3.2%
same,% remaining at time point,[1]; 480 min,1.2%
same,% remaining at time point,[1]; 1440 min,0%
"CCCCC/C=C\C/C=C\CCCCCCCC(=O)Oc1ccc2c3c1O[C@H]1C(=O)CC[C@@]4(O)C(C2)N(CC2CC2)CC[C@]314 [Compound 53, (4aS,7aR,12bS)-3-(cyclopropylmethyl)-4a-hydroxy-7-oxo-2,3,4,4a,5,6,7,7a-octahydro-1H-4,12-methanobenzofuro[3,2-e]isoquinolin-9-yl (9Z,12Z)-octadeca-9,12-di.enoate]",Approximate Solubility (mg/mL) in Excipient: Cottonseed oil,[4],>408.5 mg/mL
same,Approximate Solubility (mg/mL) in Excipient: Sesame oil,[4],>401.9 mg/mL
same,Approximate Solubility (mg/mL) in Excipient: Sesame oil,[5],>406.3 mg/mL
same,% remaining at time point,[1]; 0 min,100%
same,% remaining at time point,[1]; 15 min,46.85%
same,% remaining at time point,[1]; 120 min,19.6%
same,% remaining at time point,[1]; 480 min,7.3%
same,% remaining at time point,[1]; 1440 min,1.9%
"CCCCCCCCCCCCCCCCCCCC(=O)Oc1ccc2c3c1O[C@H]1C(=O)CC[C@@]4(O)C(C2)N(CC2CC2)CC[C@]314 [Compound 50, (4aS,7aR,12bS)-3-(cyclopropylmethyl)-4a-hydroxy-7-oxo-2,3,4,4a,5,6,7,7a-octahydro-1H-4,12-methanobenzofuro[3,2-e]isoquinolin-9-yl iconsanoate]",Approximate Solubility (mg/mL) in Excipient: Cottonseed oil,[4],<51 mg/mL
same,Approximate Solubility (mg/mL) in Excipient: Sesame oil,[4],<52 mg/mL
same,Equilibrium solubility (mg/mL) Water,[3],<0.001 mg/mL
same,% remaining at time point,[1]; 0 min,100%
same,% remaining at time point,[1]; 15 min,114.5%
same,% remaining at time point,[1]; 120 min,102.7%
same,% remaining at time point,[1]; 480 min,83.3%
same,% remaining at time point,[1]; 1440 min,73.9%
"C=C1CC[C@@]2(O)C3Cc4ccc(OCOC(=O)OCCCCCCCCCCCCCC)c5c4[C@@]2(CCN3CC2CC2)[C@H]1O5 [Compound 25, (((4aS,7aS,12bS)-3-(cyclopropylmethyl)-4a-hydroxy-7-methylene-2,3,4,4a,5,6,7,7a-octahydro-1H-4,12-methanobenzofuro[3,2-e]isoquinolin-9-yl)oxy)methyl tetradecyl carbonate]",Approximate Solubility (mg/mL) in Excipient: Cottonseed oil,[4],>414 mg/mL
same,Equilibrium solubility (mg/mL) Water,[3],<0.001 mg/mL
same,% remaining at time point,[1]; 0 min,100%
same,% remaining at time point,[1]; 15 min,82.6%
same,% remaining at time point,[1]; 120 min,69.3%
same,% remaining at time point,[1]; 480 min,62.2%
same,% remaining at time point,[1]; 1440 min,51.7%
"CCCCCCCCCCCCCCC(=O)Oc1ccc2c3c1O[C@H]1C(=O)CC[C@@]4(O)C(C2)N(CC2CC2)CC[C@]314 [Compound 58, (4aS,7aR,12bS)-3-(cyclopropylmethyl)-4a-hydroxy-7-oxo-2,3,4,4a,5,6,7,7a-octahydro-1H-4,12-methanobenzofuro[3,2-e]-isoquinolin-9-yl pentadecanoate]",Approximate Solubility (mg/mL) in Excipient: Cottonseed oil,[4],101.8 to 203.6 mg/mL
same,Approximate Solubility (mg/mL) in Excipient: Sesame oil,[4],99.4 to 198.8 mg/mL
same,% remaining at time point,[1]; 0 min,100%
same,% remaining at time point,[1]; 15 min,37%
same,% remaining at time point,[1]; 120 min,20%
same,% remaining at time point,[1]; 480 min,2.9%
same,% remaining at time point,[1]; 1440 min,1.8%

# Reference: US10533015B1, “Opioid receptor antagonist prodrugs” (Nirsum Laboratories, Inc., priority 2019, dated 2020)
